These results are taken from ChEMBL document CHEMBL4725353, “Discovery of Pyrido[2,3-b]indole Derivatives with Gram-Negative Activity Targeting Both DNA Gyrase and Topoisomerase IV” (J Med Chem, 2020).

Converted amounts (≈) assume the structure as drawn. The source made the active and inactive calls.

Broadly, the clearance is a measure of how efficiently the substance is removed, as volume per time. The term half-life denotes the time needed for the level to fall by half in the phase considered. Lower therefore signals rapid decline. The term pKa denotes the pH at which an ionisable group is half protonated. For orientation: CLint scaled means the rate of metabolic loss divided by the concentration. A higher CLint scaled goes with faster metabolism. For orientation: solubility means how much of the substance goes into solution per volume.

Data set [1] deals with Escherichia coli. Nature of the data set: Antibacterial activity against Escherichia coli ATCC 35218 assessed as reduction in microbial growth preincubated for 20 to 24 hrs followed by subculture in absence of compound and measured on day 4 CLSI based broth microdilution susceptibility method. It is filed as functional. Conditions: time hrs 20-24. (In general: In broth dilution the organism is exposed to a series of concentrations in liquid medium.)

The test system of data set [2] is Escherichia coli. Nature of the data set: Antibacterial activity against Escherichia coli ATCC BAA-2340 assessed as reduction in microbial growth preincubated for 20 to 24 hrs followed by subculture in absence of compound and measured on day 4 CLSI based broth microdilution susceptibility method. The settings on record: time hrs 20-24. The class given is functional.

Data set [3] concerns Klebsiella pneumoniae. Briefly: Antibacterial activity against Klebsiella pneumoniae ATCC 10031 assessed as reduction in microbial growth preincubated for 20 to 24 hrs followed by subculture in absence of compound and measured on day 4 CLSI based broth microdilution susceptibility method. It is filed as functional. The settings on record: time hrs 20-24.
In data set [4] the test system is Klebsiella pneumoniae. Nature of the data set: Antibacterial activity against Klebsiella pneumoniae ATCC 700603 assessed as reduction in microbial growth preincubated for 20 to 24 hrs followed by subculture in absence of compound and measured on day 4 CLSI based broth microdilution susceptibility method. The class given is functional. Conditions: time hrs 20-24.

In data set [5] the test system is Klebsiella pneumoniae. Nature of the data set: Antibacterial activity against Klebsiella pneumoniae ATCC BAA-2146 assessed as reduction in microbial growth preincubated for 20 to 24 hrs followed by subculture in absence of compound and measured on day 4 CLSI based broth microdilution susceptibility method. The settings on record: time hrs 20-24. It is filed as functional.

Data set [6] concerns Acinetobacter baumannii. Nature of the data set: Antibacterial activity against Acinetobacter baumannii ATCC 19606 assessed as reduction in microbial growth preincubated for 20 to 24 hrs followed by subculture in absence of compound and measured on day 4 CLSI based broth microdilution susceptibility method. The settings on record: time hrs 20-24. The class given is functional.

In data set [7] the test system is Acinetobacter baumannii. Briefly: Antibacterial activity against Acinetobacter baumannii ATCC 51432 assessed as reduction in microbial growth preincubated for 20 to 24 hrs followed by subculture in absence of compound and measured on day 4 CLSI based broth microdilution susceptibility method. The class given is functional. Conditions: time hrs 20-24.
Data set [8] deals with Acinetobacter baumannii. Briefly: Antibacterial activity against Acinetobacter baumannii ATCC BAA-747 assessed as reduction in microbial growth preincubated for 20 to 24 hrs followed by subculture in absence of compound and measured on day 4 CLSI based broth microdilution susceptibility method. The class given is functional. Conditions: time hrs 20-24.
Data set [9] concerns Pseudomonas aeruginosa. Nature of the data set: Antibacterial activity against Pseudomonas aeruginosa PAO1 assessed as reduction in microbial growth preincubated for 20 to 24 hrs followed by subculture in absence of compound and measured on day 4 CLSI based broth microdilution susceptibility method. It is filed as functional. Conditions: time hrs 20-24.
Data set [10] has as its system Pseudomonas aeruginosa. Briefly: Antibacterial activity against Pseudomonas aeruginosa ATCC BAA-2113 assessed as reduction in microbial growth preincubated for 20 to 24 hrs followed by subculture in absence of compound and measured on day 4 CLSI based broth microdilution susceptibility method. Conditions: time hrs 20-24. It is filed as functional.
Data set [11] can be described thus: Intrinsic clearance in mouse hepatocytes by LC/MS-MS analysis. It is filed as ADME, cell-based, Hepatocyte.
Data set [12] in a line: Protein binding in plasma (unknown origin) assessed as unbound fraction at 1 uM after 5 hrs by LC/MS-MS analysis. It is filed as ADME, cell-free.
Data set [13] in a line: Cmax/dose in iv dosed CD-1 mouse measured up to 24 hrs by LC-MS/MS analysis. The class given is ADME, organism-based. Conditions: in vivo.
The nature of data set [14]: AUC/dose in iv dosed CD-1 mouse measured up to 24 hrs by LC-MS/MS analysis. Conditions: in vivo. It is filed as ADME, organism-based.
The nature of data set [15]: Clearance in iv dosed CD-1 mouse measured up to 24 hrs by LC-MS/MS analysis. It is filed as ADME, organism-based. The settings on record: in vivo.
Data set [16] in a line: Half life in iv dosed CD-1 mouse measured up to 24 hrs by LC-MS/MS analysis. The class given is ADME, organism-based. The settings on record: in vivo.
Data set [17] can be described thus: Volume of distribution at steady state in iv dosed CD-1 mouse measured up to 24 hrs by LC-MS/MS analysis. The settings on record: in vivo, read-out: Vdss. The class given is ADME, organism-based.
A short description of data set [18]: Plasma protein binding in iv dosed CD-1 mouse measured up to 24 hrs by LC-MS/MS analysis. The class given is ADME, organism-based. Conditions: read-out: PPB (converted).
A short description of data set [19]: physchem.
Description: Ionization constant (acid), pKa of the compound by photometric titration assay
A short description of data set [20]: in vitro. Conditions: mouse, liver microsomes. Background: Microsomes from liver hold many membrane-bound enzymes, among them those of drug oxidation.
Description: Intrinsic clearance in mouse liver microsomes preincubated for 10 mins followed by NADPH regenerating system addition and measured up to 30 mins by LC/MS-MS analysis
Data set [21] in a line: physchem. Conditions: PBS, pH 6.5.
Description: Solubility of compound in PBS at pH 6.5 incubated for over night by HPLC-UV based lyophilization solubility assay
For data set [22], the system named is Escherichia coli. Briefly: microbe, parasite or virus in culture. The settings on record: ATCC 25922.
Description: Antibacterial activity against Escherichia coli ATCC 25922 assessed as reduction in microbial growth preincubated for 20 to 24 hrs followed by subculture in absence of compound and measured on day 4 CLSI based broth microdilution susceptibility method
Data set [23] concerns Pseudomonas aeruginosa. Nature of the data set: Antibacterial activity against Pseudomonas aeruginosa ATCC 27853 assessed as reduction in microbial growth preincubated for 20 to 24 hrs followed by subculture in absence of compound and measured on day 4 CLSI based broth microdilution susceptibility method. The settings on record: time hrs 20-24. The class given is functional.

For data set [24], the system named is Escherichia coli. Nature of the data set: Antibacterial activity against Escherichia coli ATCC 25922 infected in ICR mouse model of neutropenic thigh infection assessed as reduction in microbial growth at 10 to 25 mg/kg, iv and measured after 12 hrs. It is filed as functional, organism-based. The settings on record: dose mg/kg 10-25, time 12.0 hrs.
In data set [25] the test system is Escherichia coli. Nature of the data set: Antibacterial activity against Escherichia coli ATCC 25922 infected in ICR mouse model of neutropenic thigh infection assessed as reduction in microbial growth at 40 to 45 mg/kg, iv bid for 12 hrs. The class given is functional, organism-based.
The subject of data set [26] is Escherichia coli. Nature of the data set: Antibacterial activity against Escherichia coli ATCC 25922 infected in ICR mouse model of neutropenic thigh infection assessed as reduction in colony forming unit at 45 mg/kg, iv bid for 12 hrs. It is filed as functional, organism-based.
Data set [27] is described as follows: Ratio of fAUC in Escherichia coli ATCC 25922 infected ICR mouse model of neutropenic thigh infection to MIC for Escherichia coli ATCC […]. The class given is ADME. Conditions: 45 mg/kg, 12 h.
Data set [28] is described as follows: fAUC in Escherichia coli ATCC 25922 infected ICR mouse model of neutropenic thigh infection. The class given is ADME. The settings on record: 45 mg/kg, 12 h.

`CCNc1cc(F)cc2c1[nH]c1ncc(-c3cncc(C#N)c3)c(-n3cc(CN)c(C(F)(F)F)n3)c12`: the MIC in data set [1] was 1 µg/mL; in [2], 2 µg/mL; in data set [3] it was below 0.03 µg/mL; in [4], 4 µg/mL; in [5] it was 8 µg/mL; in data set [6], 1 µg/mL. Also, the MIC is 1 µg/mL in [7]; 0.5 µg/mL in data set [8]; 2 µg/mL in data set [9]; 2 µg/mL in data set [10]; below 0.25 µg/mL in data set [22]. Besides, in [11], the CLH is 48.6 µg/mL. Also, in data set [12], the fraction unbound at 5 h, 1 µM is 0.012. Further, the Cmax/dose in data set [13] was 305 kg·ng/mL/mg. The AUC/dose in data set [14] came to 324 kg·ng·h/mL/mg. Moreover, the clearance in data set [15] stood at 50 mL/min/kg. In [16], this molecule had a half-life of 1.8 h. In data set [17], the Vd turned out to be 5.8 L/kg. Moreover, in data set [18], the fraction unbound at 24 h is 0.11. In addition, the pKa in [19] amounted to 8.08. The CLint scaled at 0.5 h in [20] was 47 mL/min/kg. Further, in data set [21], the solubility worked out at 90 µg/mL (≈ 182 µM).
Take `CCNc1cc(F)cc2c1[nH]c1ncc(-c3cnc(OC)nc3)c(-n3cc(CN)c(C(F)(F)F)n3)c12`: the MIC in [1] was 3.13 µg/mL; in data set [2] it was 12.5 µg/mL; in data set [3], below 0.02 µg/mL; in data set [4], 6.26 µg/mL; in [5], 12.5 µg/mL; in data set [6], 0.78 µg/mL. The MIC in [7] was determined as 0.78 µg/mL; in data set [8], 0.39 µg/mL; in data set [9] it was 1.3 µg/mL; in data set [23], 1.56 µg/mL; in data set [10] it was 1.56 µg/mL; in [22], 0.31 µg/mL (≈ 0.619 µM). This molecule also displayed a CLH in [11] of 45.3 µg/mL. The fraction unbound at 5 h, 1 µM in data set [12] worked out at 0.027. In addition, in [13], the Cmax/dose worked out at 494 kg·ng/mL/mg. Moreover, in data set [14], the AUC/dose was 341 kg·ng·h/mL/mg. In [15], this molecule displayed a clearance of 48 mL/min/kg. For the same molecule, the half-life in data set [16] was 1.6 h. The Vd in data set [17] amounted to 3.6 L/kg. Further, in data set [18], the fraction unbound at 24 h is 0.11. The outcome in data set [24], in data set [25] and in data set [26] was Active. In addition, the fAUC/MIC result in data set [27] is listed as “>= 6”. Also, in data set [28], the fAUC is 30000 ng·h/mL. The molecule also registered a CLint scaled at 0.5 h in [20] below 20.2 mL/min/kg. The molecule further came in with a solubility in data set [21] of 15 µg/mL (≈ 30 µM).
On to `CCNc1cc(F)cc2c1[nH]c1ncc(-c3cnc(OC)nc3)c(-n3ncc4c3CNC4)c12`, for which the MIC turned out to be 5.56 µg/mL in data set [1]; 2.78 µg/mL in data set [2]; 0.09 µg/mL in data set [3]; 22.2 µg/mL in [4]; 22.2 µg/mL in data set [5]; 5.56 µg/mL in [6]. The MIC in data set [7] was 5.56 µg/mL; in [8] it was 2.78 µg/mL; in [9] it was 10 µg/mL; in data set [23] it was 11.1 µg/mL; in data set [10] it was 11.1 µg/mL; in data set [22], 0.81 µg/mL (≈ 1.82 µM). Further, the CLH in data set [11] stood at 53.9 µg/mL. In addition, the fraction unbound at 5 h, 1 µM in [12] is 0.11. In [13], the Cmax/dose amounted to 792 kg·ng/mL/mg. This molecule also yielded an AUC/dose in data set [14] of 327 kg·ng·h/mL/mg. The clearance in data set [15] is 51 mL/min/kg. The same molecule had a half-life in data set [16] of 0.8 h. For the same molecule, the Vd in [17] amounted to 1.6 L/kg. Also, the fraction unbound at 24 h in data set [18] was 0.11. This molecule registered a CLint scaled at 0.5 h in data set [20] of 21.8 mL/min/kg. Further, the solubility in data set [21] is 350 µg/mL (≈ 787 µM).
